Experimental data reported in publication PMC9437101, “Curcumin-based-fluorescent probes targeting ALDH1A3 as a promising tool for glioblastoma precision surgery and early diagnosis” (Communications Biology, 2022).
Where “and” joins values, the source holds several entries; their conditions need not be identical. Identical values can stand only once.

Columns and labels:
ALDH1A3 = molecular target: T1, ALDH1A3 (Homo sapiens, UniProt P47895); experiment: Fluorescence signal change of probe with recombinant enzyme (cross reaction assay); assay type: binding; conditions: probe 10 μM; for probe fluorescence intensity (normalized): ALDH1A3 100 μM; for increase in the intensity of the fluorescent signal on addition of ALDH1A3: vs probe alone
T1 construct: E. coli BL21 (DE3) were transformed with the full-length expression vector of each isoform; His-tag; made in house; host or cells: E. coli BL21 (DE3)
T1 sequence (P47895 1-512): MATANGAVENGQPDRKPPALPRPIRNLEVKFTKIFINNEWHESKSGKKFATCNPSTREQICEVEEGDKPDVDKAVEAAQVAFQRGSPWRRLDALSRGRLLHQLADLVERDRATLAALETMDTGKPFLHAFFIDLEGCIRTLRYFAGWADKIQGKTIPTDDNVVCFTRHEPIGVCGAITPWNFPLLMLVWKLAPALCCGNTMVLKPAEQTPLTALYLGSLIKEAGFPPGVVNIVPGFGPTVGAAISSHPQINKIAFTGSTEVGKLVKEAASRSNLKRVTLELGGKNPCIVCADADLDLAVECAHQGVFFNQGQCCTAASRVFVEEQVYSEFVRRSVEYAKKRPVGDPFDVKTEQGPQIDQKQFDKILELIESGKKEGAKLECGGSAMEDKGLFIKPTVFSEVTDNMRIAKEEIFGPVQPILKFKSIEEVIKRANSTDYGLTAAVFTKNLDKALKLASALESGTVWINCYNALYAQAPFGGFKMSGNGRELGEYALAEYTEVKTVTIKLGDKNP
Description: (§1) All five fluorescent compounds were firstly characterized for their solubility in physiological buffer and for their absorbance values. We then performed a 3D analysis using a TECAN SPARK to simultaneously evaluate the excitation and the emission wavelengths, that were supposed to be similar to the curcumin ones[48]. […] For these reasons, we decided to continue the biochemical characterization on Probe 10 and 11 using the selected parameters (Fig. 2). The fluorescent signal changes for both molecules upon binding to the target, were firstly evaluated with recombinant human ALDH1A3. […] To better characterized our fluorescent compounds, we tested their potential cross-reactivity toward the other two isoforms of the ALDH1A subfamily. […] In addition, a wide range of biologically relevant analytes were tested at a concentration of 100 μM in complex with a fixed concentration of 10 μM of the probe (either probe 10 or probe 11), to make sure that no potential off-target signals could affect the analysis. More specifically, we checked if there were abnormal fluorescence signals that could have been contributed by the presence of biologically relevant compounds, (e.g., biologically relevant amino acids), to buffers and molecules commonly used in experimental procedures.
(§2) Based on the values obtained by the 3D analysis, a wide series of biomolecules directly used in the biochemical experiment, both in vitro and in vivo, and listed in Table 1, were tested in complex with a fixed concentration of 10 μM of both probes, to measure any possible cross reaction signal.

ALDH1A2 = molecular target: T2, ALDH1A2 (Homo sapiens, UniProt O94788); experiment: as above; assay type: binding; conditions: probe 10 μM; for probe fluorescence intensity (normalized): ALDH1A2 100 μM
T2 construct: E. coli BL21 (DE3) were transformed with the full-length expression vector of each isoform; His-tag; made in house; host or cells: E. coli BL21 (DE3)
T2 sequence (O94788 1-518): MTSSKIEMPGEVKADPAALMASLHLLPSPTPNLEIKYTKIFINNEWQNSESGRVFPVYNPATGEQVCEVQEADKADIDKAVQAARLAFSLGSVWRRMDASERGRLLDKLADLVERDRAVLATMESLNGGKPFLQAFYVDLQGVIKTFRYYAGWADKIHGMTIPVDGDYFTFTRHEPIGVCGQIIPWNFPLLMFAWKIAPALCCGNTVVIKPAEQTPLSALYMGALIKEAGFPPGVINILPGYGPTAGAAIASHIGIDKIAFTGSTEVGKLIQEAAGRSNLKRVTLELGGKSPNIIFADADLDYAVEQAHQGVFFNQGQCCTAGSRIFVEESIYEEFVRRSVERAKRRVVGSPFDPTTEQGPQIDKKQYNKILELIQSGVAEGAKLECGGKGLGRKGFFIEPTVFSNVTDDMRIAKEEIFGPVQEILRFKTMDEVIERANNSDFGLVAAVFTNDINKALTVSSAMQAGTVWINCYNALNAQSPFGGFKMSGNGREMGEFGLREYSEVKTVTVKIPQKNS
Description: as §1, §2

ALDH1A1 = molecular target: T3, ALDH1A1 (Homo sapiens, UniProt P00352); experiment: as above; assay type: binding; conditions: probe 10 μM; for probe fluorescence intensity (normalized): ALDH1A1 100 μM
T3 construct: E. coli BL21 (DE3) were transformed with the full-length expression vector of each isoform; His-tag; made in house; host or cells: E. coli BL21 (DE3)
T3 sequence (P00352 1-501): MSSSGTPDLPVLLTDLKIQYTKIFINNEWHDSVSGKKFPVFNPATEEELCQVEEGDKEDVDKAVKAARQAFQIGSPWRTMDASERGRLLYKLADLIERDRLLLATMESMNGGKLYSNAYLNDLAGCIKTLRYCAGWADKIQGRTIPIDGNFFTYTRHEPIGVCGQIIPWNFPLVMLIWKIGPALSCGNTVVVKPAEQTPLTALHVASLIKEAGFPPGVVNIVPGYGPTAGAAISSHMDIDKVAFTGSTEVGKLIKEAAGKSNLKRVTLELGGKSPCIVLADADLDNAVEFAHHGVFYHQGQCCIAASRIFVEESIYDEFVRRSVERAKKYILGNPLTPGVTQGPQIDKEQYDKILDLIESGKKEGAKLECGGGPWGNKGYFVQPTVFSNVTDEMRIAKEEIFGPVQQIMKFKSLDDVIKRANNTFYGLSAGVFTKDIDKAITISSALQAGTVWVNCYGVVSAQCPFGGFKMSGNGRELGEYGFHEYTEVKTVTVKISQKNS
Description: as §1, §2

[1] = Absorbance, emission and excitation wavelengths evaluation; assay type: physicochemical; conditions: 10 µM in SEC buffer
Protocol: Fluorescent compounds were analyzed on a Tecan Spark to evaluate the correct parameters to further set the biochemical characterizations. The absorbance was evaluated in a range from 300 to 700 nm, with a wavelength step size of 5 nm. Based on the absorbance values, we settled a 3D fluorescence emission scan to evaluate the excitation and emission peaks. The analysis was conducted using the same buffer mix, as already described. The excitation range was set between 390 and 450 nm for both molecules, with a step size of 5 nm. The emission range was set between 485 and 700 nm for both molecules, with a step size of 5 nm. All these characterizations were performed on a Tecan Spark using Greiner Bio-One 96-UV-Transparent Microplates and the tests were carried out using a total volume of 100 μl for each well.

[2] = Solubility in physiological buffer; assay type: physicochemical; conditions: among all five molecules
Description: as §1

CCOC(=O)Cn1cc(COc2ccc(/C=C/C(=O)/C=C(O)/C=C/c3ccc(O)c(OC)c3)cc2OC)nn1 [Probe 11]
probe fluorescence intensity (normalized) (ALDH1A3; listed as probe A): 7.871 and 7.494 and 8.003 | increase in the intensity of the fluorescent signal on addition of ALDH1A3 (ALDH1A3): ~8 folds | probe fluorescence intensity (normalized) (ALDH1A2; listed as probe A): 5.638 and 5.434 and 5.428 | reduction of the fluorescence signal with ALDH1A2 compared to ALDH1A3 (ALDH1A2): 6 folds | probe fluorescence intensity (normalized) (ALDH1A1; listed as probe A): 4.322 and 4.415 and 4.4337 | reduction of the fluorescence signal with ALDH1A1 compared to ALDH1A3 (ALDH1A1): 4 folds | Abs [1]: 410 nm | Em [1]: 545 nm | Ex [1]: 420 nm | solubility in physiological buffer [2]: highest solubility

COc1cc(/C=C/C(O)=C/C(=O)/C=C/c2ccc(OCc3cn(CCOc4ccc(C=O)cc4)nn3)c(OC)c2)ccc1O [Probe 10]
probe fluorescence intensity (normalized) (ALDH1A3; listed as probe B): 11.108 and 11.7869 and 9.709 | increase in the intensity of the fluorescent signal on addition of ALDH1A3 (ALDH1A3): about 12 folds | probe fluorescence intensity (normalized) (ALDH1A2; listed as probe B): 4.479 and 4.412 and 3.9708 | reduction of the fluorescence signal with ALDH1A2 compared to ALDH1A3 (ALDH1A2): ~4 folds | probe fluorescence intensity (normalized) (ALDH1A1; listed as probe B): 2.886 and 2.75 and 2.685 | reduction of the fluorescence signal with ALDH1A1 compared to ALDH1A3 (ALDH1A1): about 2 folds | Abs [1]: 410 nm | Em [1]: 545 nm | Ex [1]: 420 nm | solubility in physiological buffer [2]: highest solubility
